Data published in patent publication US20240360076A1, “NONIONIC SURFACTANTS” (priority 2023, published 2024).

How the values were obtained:
FluB target RNA sequence = test: FluB LAMP assay, time to positive; format: biochemical; conditions: for compatibility with FluB assay: presence of nasal matrix
Procedure: As the surfactant concentration approaches its critical micelle concentration (CMC), detrimental impact is observed on LAMP performance.
It was determined that DS2 is compatible with FluB assay in the presence of nasal matrix at 0.015%.

[1] = CMC determination by dynamic light scattering; format: physicochemical
Procedure: Average micelle radius data was collected on a DynaPro NanoStar Dynamic Light Scattering Detector. To each disposable cuvette was added 5 μL of the specified solution of DS1, DS2, or DS13 in water (T=25° C., n=10).

[2] = format: physicochemical; conditions: buffer, 1 month, 0.1 %, pH 8.8
Procedure: Solutions of isothermal amplification buffers at pH 8.8 containing 0.1% of DS2, DS13, or DS17 were kept at 25° C. and analyzed over time using HPLC. It was observed that 95%-100% of the surfactant remained after one month (FIG. 5A) and therefore DSs are stable in pH 8.8 amplification buffer when stored in ambient conditions.

[3] = tested on: SARS-COV-2 target template; test: SARS-COV-2 LAMP assay; format: biochemical; conditions: 0.0075% in LAMP MasterMix
Ex2B target template = test: Ex2B LAMP assay; conditions: 0.0075% in LAMP MasterMix
Procedure: DS2 was added at 0%, 0.015%, 0.0575%, and 0.1% to the LAMP MasterMix, or LAMP buffer, containing target-specific primers, dNTPs, DNA polymerase, reverse transcriptase, intercalating fluorescent dye, and the target RNA sequence. This reaction mixture was incubated at 62° C. for 50 minutes and the increase in fluorescence was assessed to determine the time to positivity.
DS2, DS13, and DS17 were added at 0.0075% to the LAMP MasterMix using the above procedure with Ex2B target template (FIG. 4B).

MS2 template = test: Lyophilized MS2 LAMP chemistry, time to positive; format: biochemical; conditions: 0%, 0.03% or 0.06%; template 0.12 cp/μL and 0.06 cp/μL
[4] = 2 months

SMILES: CCCCCCCCCCC(=O)N(CCOCCOCCOC)CCOCCOCCOC [DS2]
- compatibility with FluB assay (FluB target RNA sequence; 0.0075% in LAMP MasterMix): compatible
- compatibility with FluB assay (FluB target RNA sequence; 0.015% in LAMP buffer): compatible
- impact on LAMP performance at the CMC (FluB target RNA sequence; 0.1% DS2, FluB LAMP, nasal matrix, 62° C. for 50 minutes): delay in the contrived positive amplification
- impact on assay specificity below the CMC (FluB target RNA sequence; concentrations below the CMC): no detrimental impact
- critical micelle concentration (CMC) [1]: 0.1%
- surfactant remaining [2]: 95%-100
- compatibility with SARS-COV-2 assay [3]: compatible
- compatibility with Ex2B assay (Ex2B target template): compatible

SMILES: CCCCCCCCCCC(=O)N(CCOCCOCCOCCOC)CCOCCOCCOCCOC [DS13]
- compatibility with FluB assay (FluB target RNA sequence; 0.0075% in LAMP MasterMix): compatible
- impact on time to positive (Tp, min) (MS2 template): no detrimental impact
- remaining [4]: 97.1±1.5%
- surfactant remaining [2]: 95%-100
- compatibility with SARS-COV-2 assay [3]: compatible
- compatibility with Ex2B assay (Ex2B target template): compatible

SMILES: CCCCCCCCCCC(=O)NCCOCCOCCOCCOCCOCCOC [DS17]
- compatibility with FluB assay (FluB target RNA sequence; 0.0075% in LAMP MasterMix): compatible
- surfactant remaining [2]: 95%-100
- compatibility with SARS-COV-2 assay [3]: compatible
- compatibility with Ex2B assay (Ex2B target template): compatible
